Assay results from publication PMC12525728, “Safety, Pharmacokinetics, Translational and Molecular Mechanistic Insights on the Prostate Cancer Recurrence Suppressor Pseurotin A” (Molecules, 2025).
Read-outs that look alike come from different tables or passages of the source.

Experiment: Pharmacokinetics study in Swiss albino mice
Format: in vivo
Conditions: for C0 / AUC(0-t): iv, 50 mg/kg
Experimental: Five µL of the IS ([…]) and 20 µL of 50, 40, 30, 20, 10, 8, and 4 µg/mL PsA standard solutions were combined with 15 µL freshly extracted blank mouse plasma. 300 µL of a 70% EtOAc/30% isopropanol mixture was added and vortexed for 30 s. Following centrifugation at 15,000× g for 10 min, the supernatant was transferred to a 2 mL Eppendorf tube for nitrogen evaporation. The residues were reconstituted in 25 µL HPLC-grade MeOH before being subjected to 30 s sonication followed by centrifugation at 15,000× g for 10 min. Afterwards, the entire sample was immediately injected for RP-HPLC analysis. The mouse plasma samples used in the PK study were subjected to the same extraction method, minus the addition of the PsA standard solutions. After weighing, each mouse organ was reconstituted in 500 µL PBS, then homogenized using the MISONIX Sonicator (Division of QSonica LLC, Newtown, CT, USA). Samples were centrifuged at 15,000× g for 10 min, and the supernatant was collected and transferred to a 2 mL Eppendorf. About 5 µL of IS (25 µL/mL) and 300 µL of a 70% EtOAc/30% isopropanol mixture were added to 100 µL of supernatant and vortexed for 30 s. Following centrifugation at 15,000× g for 10 min, the supernatant was transferred to a 2 mL Eppendorf tube and evaporated under N2. The remains were reconstituted in 40 µL HPLC-grade methanol before being subjected to 30 s sonication followed by centrifugation at 15,000× g for 10 min.
The mean plasma concentration-time curve was plotted using GraphPad Prism software version 8.0.2 (La Jolla, CA, USA). PK parameters were obtained through non-compartmental analysis following intravenous bolus input using PK Solver 2.0 [52].
For the PKs study, twelve male and twelve female healthy Swiss albino mice were randomly selected and placed in 3 groups (n = 4/sex/group). The mice received free access to drinking water and pelleted regular rodent chow (5% fat content, Cat# 7012, Envigo/Teklad, Madison, WI, USA) until the day before experimentation, after which they were fasted for 8 h and allowed only free access to drinking water. Mice were administered PsA formulated in sterile PBS-DMSO (925:75) + 0.2% Tween 80 at a volume not exceeding 100 µL intravenously through recto-orbital injection. Each animal was anaesthetized using Isoflurane (Piramal Critical Care Inc., Bethlehem, PA, USA) for 1–2 min before injection. Disposable sterilized syringes (Becton, Dickinson and Company, Franklin Lakes, NJ, USA) were used for blood collection as well as administration of PsA at a dose of 50 mg/kg and volume, adjusted to the mouse body weight, no greater than 100 µL for animal safety considerations. Blood samples of around 50–70 µL were collected through the tail vein in 600 µL Eppendorf tubes at time points 0.25, 0.75, and 1.5 h for groups 1 and 4, 0.083, 0.5, and 1 h for groups 2 and 5, in addition to 2 and 4 h for groups 3 and 6 following intravenous injection and subjected to immediate centrifugation. From the plasma, 15 µL was transferred into clean 600 µL Eppendorf tubes and immediately subjected to the extraction method listed above and analyzed using HPLC.

CC/C=C\[C@H](O)[C@H](O)C1=C(C)C(=O)[C@]2(O1)C(=O)N[C@@](OC)(C(=O)c1ccccc1)[C@@H]2O [PsA, pseurotin A]
plasma detectability over time by HPLC (IV 50 mg/kg): undetectable by the HPLC method after 2 h
C0 (both sexes, Swiss albino, mouse, plasma, IV 50 mg/kg, read-out: initial concentration range): 24.6 to 34.2 µg/mL
AUC(0-t) (both sexes, Swiss albino, mouse, plasma, single IV 50 mg/kg, 8 h fasting, non-compartmental, mean, read-out: AUC0–t): 19.1 µg·h/mL
AUC(0-t) (both sexes, Swiss albino, mouse, plasma, single IV 50 mg/kg, 8 h fasting, non-compartmental, mean, read-out: AUCt–∞): 20.9 µg·h/mL
C0 (both sexes, Swiss albino, mouse, plasma, single IV 50 mg/kg, 8 h fasting, non-compartmental, mean, read-out: C0, initial plasma concentration): 37.3 µg/mL
Vd (both sexes, Swiss albino, mouse, plasma, IV 50 mg/kg, read-out: average volume of distribution (Vd)): 1.83 L/kg
MRT (both sexes, Swiss albino, mouse, plasma, single IV 50 mg/kg, 8 h fasting, non-compartmental, mean, read-out: MRT, mean residence time): 44.4 min
half-life (both sexes, Swiss albino, mouse, plasma, single IV 50 mg/kg, 8 h fasting, non-compartmental, mean, read-out: T1/2, elimination half-life (converted)): 31.8 min
Vd (both sexes, Swiss albino, mouse, plasma, single IV 50 mg/kg, 8 h fasting, non-compartmental, mean, read-out: Vd, volume of distribution): 1.83 L
AUMC, area under the moment curve (single IV 50 mg/kg, 8 h fasting, non-compartmental, mean): 15.41 µg·h/mL
